Measurements taken from ChEMBL document CHEMBL1201862, “PubChem BioAssay data set” (2004).
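Step 1: Grow cells in 96-well plates. Step 2: Expose to compound for 48 hours at 5 concentrations. Step 3: Interpolate endpoints linearly; if unreached, use highest concentration. At the GI50, growth is halved.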 Calls of active or inactive are those of the source. Cut-off read from the data, not from the text of the source: active = GI50 up to about 1.1 µM and inactive = higher. Starred links: 1 amine or outer side, 2 acyl side, 3 side chain; linkers in the order of their positions; H or OH if unused. Positions of bridges follow the written chain, without caps; N, C: chain ends. Non-standard residues stand in square brackets, D forms with d. Residues, ends and D or L forms follow the SMILES beside them. Chains are numbered I, II in the order given. Actinocin(9to1) = Cc1c2oc3c(C)ccc(C(=O)[*:1])c3nc-2c(C(=O)[*:2])c(N)c1=O; NMeV = CN[CH](C(=O)O)C(C)C; Sar = CNCC(=O)O

Tests used:
Assay in all cases: NCI-60 cell line screen, 48 h
HL-60 = test system: HL-60
EKVX = test system: EKVX
NCI/ADR-RES = test system: NCI/ADR-RES
TK-10 = test system: TK-10
ACHN = test system: ACHN
SW-620 = test system: SW-620
MDA-MB-231 = test system: MDA-MB-231
MDA-MB-435 = test system: MDA-MB-435
RXF 393 = test system: RXF 393
HT-29 = test system: HT-29
SF-268 = test system: SF-268
T47D = test system: T47D
IGROV-1 = test system: IGROV-1
NCI-H226 = test system: NCI-H226
RPMI-8226 = test system: RPMI-8226
SNB-75 = test system: SNB-75
COLO 205 = test system: COLO 205
SR = test system: SR

| SMILES | GI50 (HL-60) | GI50 (EKVX) | GI50 (NCI/ADR-RES) | GI50 (TK-10) | GI50 (ACHN) | GI50 (SW-620) | GI50 (MDA-MB-231) | GI50 (MDA-MB-435) | GI50 (RXF 393) | GI50 (HT-29) | GI50 (SF-268) | GI50 (T47D) | GI50 (IGROV-1) | GI50 (NCI-H226) | GI50 (RPMI-8226) | GI50 (SNB-75) | GI50 (COLO 205) | GI50 (SR) |
| --- | --- | --- | --- | --- | --- | --- | --- | --- | --- | --- | --- | --- | --- | --- | --- | --- | --- | --- |
| CCOC(=O)Cn1nnc2cc(Nc3c(C)[n+]([O-])c4cc(F)c(OCC)cc4[n+]3[O-])ccc21 | > 100 µM (inactive) | > 100 µM (inactive) | > 100 µM (inactive) | 24.9 µM (inactive) | 35.9 µM (inactive) | > 100 µM (inactive) | 27.1 µM (inactive) | > 100 µM (inactive) | 31.8 µM (inactive) | > 100 µM (inactive) | 45.8 µM (inactive) | > 100 µM (inactive) | 96.2 µM (inactive) | > 100 µM (inactive) | > 100 µM (inactive) |  |  |  |
| O=C1c2cccnc2-c2nccc3c2c1nc1ccccc13 [ASCIDIDEMIN] | 0.1 µM (active) | 0.912 µM (active) | 0.0551 µM (active) | 1.27 µM (inactive) | 0.0371 µM (active) | 0.0705 µM (active) | 0.188 µM (active) | 0.19 µM (active) | 0.14 µM (active) | 1.19 µM (inactive) | 0.109 µM (active) | 0.29 µM (active) | 0.31 µM (active) | 0.21 µM (active) | 0.264 µM (active) | 0.389 µM (active) | 1.99 µM (inactive) |  |
| Cc1cc(C)n(C(=O)C(C)Sc2nnc(SC(C)C(=O)n3nc(C)cc3C)s2)n1 (stereo not drawn) | > 100 µM (inactive) | > 100 µM (inactive) | > 100 µM (inactive) | > 100 µM (inactive) | > 100 µM (inactive) | > 100 µM (inactive) | > 100 µM (inactive) | > 100 µM (inactive) | > 100 µM (inactive) | > 100 µM (inactive) | > 100 µM (inactive) |  | > 100 µM (inactive) | > 100 µM (inactive) | > 100 µM (inactive) | > 100 µM (inactive) | > 100 µM (inactive) | > 100 µM (inactive) |
| CC(=O)c1ccc(NCN2C(=O)c3ccccc3C2=O)cc1 | 36.9 µM (inactive) | > 100 µM (inactive) | > 100 µM (inactive) | > 100 µM (inactive) | > 100 µM (inactive) | > 100 µM (inactive) | > 100 µM (inactive) | > 100 µM (inactive) | > 100 µM (inactive) | > 100 µM (inactive) | > 100 µM (inactive) | > 100 µM (inactive) | > 100 µM (inactive) |  | 66.5 µM (inactive) | 30.5 µM (inactive) | > 100 µM (inactive) |  |
| C=C1C(=O)O[C@@]23C1CC[C@@H](C)C2CC[C@@]1(C)OC31 (stereo partly drawn) | 2.72 µM (inactive) | 12.5 µM (inactive) | 16.8 µM (inactive) | 4.12 µM (inactive) | 12.4 µM (inactive) | 8.81 µM (inactive) |  | 4.25 µM (inactive) | 16.7 µM (inactive) | 5.86 µM (inactive) | 13.7 µM (inactive) | 4.03 µM (inactive) | 11.7 µM (inactive) | 23.9 µM (inactive) | 2.9 µM (inactive) | 3.13 µM (inactive) | 1.86 µM (inactive) | 3.71 µM (inactive) |
| Nc1ccccc1NC(=O)c1ccc(CNC(=O)OCc2cccnc2)cc1 [ENTINOSTAT] | 0.659 µM (active) | 1.72 µM (inactive) | 1.24 µM (inactive) | 0.92 µM (active) | 1.88 µM (inactive) | 0.929 µM (active) | 2.1 µM (inactive) |  | 2.16 µM (inactive) | 0.524 µM (active) | 2.43 µM (inactive) | 0.708 µM (active) | 2.78 µM (inactive) | 0.501 µM (active) | 0.158 µM (active) | 4.89 µM (inactive) | 1.17 µM (inactive) |  |
| N#C/C(=C\c1cc(F)cc(F)c1)c1ccccn1 | > 10 µM (inactive) | 13 µM (inactive) | 23.6 µM (inactive) | 30.8 µM (inactive) | 30.6 µM (inactive) | > 10 µM (inactive) |  |  | 26.7 µM (inactive) | 34.4 µM (inactive) | 19.4 µM (inactive) |  | 54.8 µM (inactive) | 17.5 µM (inactive) | 14.9 µM (inactive) | 16.1 µM (inactive) | > 10 µM (inactive) | 24 µM (inactive) |
| Cc1nc2ccccc2n1Cc1nnc2n1N=C(c1ccccc1)CS2 | 29.2 µM (inactive) | 34.3 µM (inactive) | 64.1 µM (inactive) | 40.1 µM (inactive) | 47.6 µM (inactive) | 34.4 µM (inactive) | 20.6 µM (inactive) | 32.7 µM (inactive) |  | 30.5 µM (inactive) | 40.9 µM (inactive) | 10.6 µM (inactive) | 2.4 µM (inactive) | > 100 µM (inactive) | 17.7 µM (inactive) | 18 µM (inactive) | 30.1 µM (inactive) |  |
| CC(=O)/C=C/C1=C(C)CCCC1(C)CC(C)C (stereo not drawn) | 11.7 µM (inactive) | 39.7 µM (inactive) |  | > 100 µM (inactive) | 22.1 µM (inactive) | 18.6 µM (inactive) | 70.8 µM (inactive) | 32.5 µM (inactive) | 14.8 µM (inactive) | 28 µM (inactive) | 39.7 µM (inactive) | 15.3 µM (inactive) | 29.3 µM (inactive) | 33.5 µM (inactive) | 13.7 µM (inactive) | 21.6 µM (inactive) | 30.3 µM (inactive) | 16 µM (inactive) |
| CN1C(C)(C)CC(=O)C(Br)C1(C)C (stereo not drawn) | > 100 µM (inactive) | > 100 µM (inactive) | > 100 µM (inactive) | > 100 µM (inactive) | > 100 µM (inactive) | > 100 µM (inactive) |  | > 100 µM (inactive) |  | > 100 µM (inactive) | > 100 µM (inactive) | > 100 µM (inactive) | > 100 µM (inactive) | > 100 µM (inactive) | > 100 µM (inactive) | 61.8 µM (inactive) | > 100 µM (inactive) | > 100 µM (inactive) |
| COCC1OC(OC2C3=C(C(C)C)CCC3(C)/C=C3\C(CCC3(O)COC)C(C)C2O)C(O)C2OC3OC12OC3(C)C1CO1 (stereo not drawn) | 16.3 µM (inactive) | 37.5 µM (inactive) |  | 29.9 µM (inactive) | 47.2 µM (inactive) | 34.4 µM (inactive) | 50.9 µM (inactive) | 31 µM (inactive) | 21.2 µM (inactive) | 34.8 µM (inactive) | 16.9 µM (inactive) | 29.4 µM (inactive) | 37.8 µM (inactive) | 16.3 µM (inactive) | 27.2 µM (inactive) | 21.7 µM (inactive) | 41.5 µM (inactive) | 41.8 µM (inactive) |
| Cc1c2oc3c(C)ccc(C(=O)NC4C(=O)NC(Cc5ccc(O)cc5)C(=O)N5CCCC5C(=O)N(C)CC(=O)N(C)C(C(C)C)C(=O)OC4C)c3nc-2c(C(=O)NC2C(=O)NC(Cc3ccc(O)cc3)C(=O)N3CCCC3C(=O)N(C)CC(=O)N(C)C(C(C)C)C(=O)OC2C)c(N)c1=O (stereo not drawn) (I: TYP[Sar][NMeV] / II: TYP[Sar][NMeV]; ester I:1-I:C, II:1-II:C; linker I:N-II:N via Actinocin(9to1); configuration not given here) |  | 70.5 µM (inactive) | > 94 µM (inactive) | 13.7 µM (inactive) | 0.397 µM (active) | 0.33 µM (active) | 15.6 µM (inactive) | 1.93 µM (inactive) | 0.406 µM (active) | 0.755 µM (active) | 0.16 µM (active) | 1.36 µM (inactive) | 0.149 µM (active) | 0.957 µM (active) | 0.282 µM (active) | 0.139 µM (active) | 0.403 µM (active) |  |
| C=C1C(=O)O[C@H]2C1C[C@H](O)[C@@]1(C)OC1CC[C@@]1(C)O[C@H]21 (stereo partly drawn) |  | 18.2 µM (inactive) | 20.9 µM (inactive) | 19.8 µM (inactive) | 18.1 µM (inactive) | 13.6 µM (inactive) |  | 23.5 µM (inactive) | 22.5 µM (inactive) | 32.5 µM (inactive) | 43.2 µM (inactive) | 19.3 µM (inactive) | 14.9 µM (inactive) |  | 6.65 µM (inactive) | 80.4 µM (inactive) | 4.88 µM (inactive) | 17.8 µM (inactive) |
| N#Cc1c(N)sc2c1-c1ccccc1OC2 | 16.4 µM (inactive) | 3.52 µM (inactive) | 32.2 µM (inactive) | 32.1 µM (inactive) | 32.2 µM (inactive) | 35.5 µM (inactive) | 46.9 µM (inactive) | 32.5 µM (inactive) | 16 µM (inactive) | 26.2 µM (inactive) | 37.1 µM (inactive) |  | 49.7 µM (inactive) | 93.5 µM (inactive) | 33.6 µM (inactive) |  | 42.8 µM (inactive) | 19.1 µM (inactive) |
| CCOC(=O)/C=C/c1nc(C#N)c(N)o1 | > 100 µM (inactive) | > 100 µM (inactive) |  | > 100 µM (inactive) | > 100 µM (inactive) | > 100 µM (inactive) | > 100 µM (inactive) | > 100 µM (inactive) | 1.46 µM (inactive) | > 100 µM (inactive) | > 100 µM (inactive) |  | > 100 µM (inactive) |  | > 100 µM (inactive) | > 100 µM (inactive) |  | > 100 µM (inactive) |
| Cc1c(-c2ccccc2)[nH]c2cc(Cl)ccc2c1=O | 23.1 µM (inactive) | > 100 µM (inactive) |  | 38 µM (inactive) | 55.8 µM (inactive) |  | 70.8 µM (inactive) | 12 µM (inactive) | 18.6 µM (inactive) | > 100 µM (inactive) | 33.5 µM (inactive) | > 100 µM (inactive) |  | 21.1 µM (inactive) | > 100 µM (inactive) |  |  | 18.7 µM (inactive) |
| COc1ccc(C2C=C(c3ccc(C)cc3)N(c3ccc(OC)cc3[N+](=O)[O-])C3C(=O)OC(=O)C23)c(OC)c1 (stereo not drawn) | 31.8 µM (inactive) | 28.2 µM (inactive) |  | 47.5 µM (inactive) | 16 µM (inactive) | 28.6 µM (inactive) | 53.2 µM (inactive) | 44.3 µM (inactive) |  | 24.3 µM (inactive) | 18.5 µM (inactive) |  | 15.2 µM (inactive) | 31.5 µM (inactive) | 22 µM (inactive) | 20.2 µM (inactive) | 43.1 µM (inactive) | 20.1 µM (inactive) |
